Laboratory results reported in US20190119282A1, “IMIDAZOPYRIDAZINES USEFUL AS INHIBITORS OF THE PAR-2 SIGNALING PATHWAY” (Vertex Pharmaceuticals Incorporated, priority 2013, published 2019).

Columns and labels:
[1] = molecular target: T1, PAR2 (HT-29 cells, SLIGKV activation) (Homo sapiens, UniProt P55085); assay: Ca FLIPR TETRA assay, ANTAGONIST mode, stimulation with 8 μM SLIGKV; format: cell-based; settings: HT-29 cells, stimulation with 8 μM SLIGKV
T1 construct: host or cells: HT-29 cells
T1 sequence (P55085 26-397): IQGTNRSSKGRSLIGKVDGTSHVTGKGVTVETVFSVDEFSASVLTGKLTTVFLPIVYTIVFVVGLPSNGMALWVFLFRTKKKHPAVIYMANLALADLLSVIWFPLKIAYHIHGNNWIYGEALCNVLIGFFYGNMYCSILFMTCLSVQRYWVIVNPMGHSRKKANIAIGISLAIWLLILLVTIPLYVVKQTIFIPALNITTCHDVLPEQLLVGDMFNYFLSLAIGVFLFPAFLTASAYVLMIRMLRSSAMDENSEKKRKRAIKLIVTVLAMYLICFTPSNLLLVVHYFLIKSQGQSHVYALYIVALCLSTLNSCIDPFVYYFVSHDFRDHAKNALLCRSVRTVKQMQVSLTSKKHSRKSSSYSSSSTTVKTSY
How it was run: (§1)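 HT-29 cells grown overnight in 1% FBS McCoy's medium were loaded with calcium 5 dye (45 min 37 °C, 15 min r.t.). Compounds were added and Ca2+ read for direct activation, then after 30 min at r.t. cells were stimulated with 8 μM SLIGKV, 1 U/mL thrombin, 3.1 U/mL trypsin or 0.6 μM UTP (final).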

[2] = molecular target: T2, PAR2 (HT-29 cells, trypsin activation) (Homo sapiens, UniProt P55085); assay: Ca FLIPR TETRA assay, ANTAGONIST mode, stimulation with 3.1 U/mL trypsin; format: cell-based; settings: HT-29 cells, stimulation with 3.1 U/mL trypsin
T2 construct: host or cells: HT-29 cells
T2 sequence (P55085 26-397): T1 sequence (P55085 26-397)
How it was run: as §1

[3] = system: Thrombin-stimulated Ca2+ response in HT-29 cells; assay: Ca FLIPR TETRA assay, ANTAGONIST mode, stimulation with 1 U/mL Thrombin; format: cell-based, human; settings: for Thrombin % @ concentration: @ 50 (μM); for IC50: Homo sapiens, HT-29 cells, stimulation with 1 U/mL Thrombin
How it was run: as §1

[4] = system: UTP-stimulated Ca2+ response in HT-29 cells; assay: Ca FLIPR TETRA assay, ANTAGONIST mode, stimulation with 0.6 μM UTP; format: cell-based, human; settings: for IC50: Homo sapiens, HT-29 cells, stimulation with 0.6 μM UTP
How it was run: as §1

SMILES	IC50 [1]	IC50 [2]	Thrombin % @ concentration [3]	UTP % @ concentration ([4]; @ 50 (μM))	IC50 ([1]; antagonist mode)	IC50 ([2]; antagonist mode)	IC50 ([3]; antagonist mode)	IC50 ([4]; antagonist mode)	IC50 [3]	IC50 [4]
CC(C)c1cc(-c2ccc(F)cc2)nn2cc(C(=O)N3CCN(C(=O)OC(C)(C)C)[C@@H](C)C3)nc12 [Compound I-96]	0.044 µM	0.15 µM	52% @ 50	66% @ 50	–	–	–	–	–	–
CC(C)(C)c1cc(-c2ccc(F)cc2)nn2cc(C(=O)N3CCN(C(=O)c4ccn[nH]c4=O)CC3(C)C)nc12 [Compound I-356]	–	–	–	–	0.028 µM	0.015 µM	> 1 µM	> 1 µM	–	–
COC(=O)CN1CCN(C(=O)c2cn3nc(-c4ccc(F)cc4)cc(C(C)(C)C)c3n2)C(C)(C)C1=O [Compound I-503]	–	–	–	–	0.0039 µM	0.0046 µM	> 1 µM	> 1 µM	–	–
CCOC(=O)[C@H]1CCCN(C(=O)c2cn3nc(-c4ccc(F)cc4)cc(C(F)(F)F)c3n2)[C@@H]1C [Compound I-76]	3.3 µM	4.8 µM	–	–	–	–	–	–	5.5 µM	4.4 µM
CC(C)c1cc(-c2ccc(F)c(Cl)c2)nn2cc(C(=O)N3CCN(C(=O)[C@H]4CC[C@@H](C(=O)O)CC4)CC3(C)C)nc12 [Compound I-495]	–	–	–	–	0.0041 µM	0.005 µM	21.5 µM	11.1 µM	–	–
CC(C)(C)c1cc(-c2ccc(F)cc2)nn2cc(C(=O)N3CCN(C(=O)C4CC(C(=O)O)C4)CC3(C)C)nc12 (centres unmarked) [Compound I-492]	–	–	–	–	0.004 µM	0.0056 µM	0.82 µM	0.69 µM	–	–
Cc1ccc(-c2cc(C(C)(C)C)c3nc(C(=O)N4CCN(C(=O)c5ccn[nH]5)CC4(C)C)cn3n2)cc1F [Compound I-424]	–	–	–	–	0.0009 µM	0.0012 µM	> 1 µM	> 1 µM	–	–
CC(C)(F)c1cc(-c2ccc(F)cc2)nn2cc(C(=O)N3CCNC(=O)C3(C)C)nc12 [Compound I-362]	–	–	–	–	0.013 µM	0.031 µM	> 1 µM	> 1 µM	–	–
CC(C)c1cc(-c2ccc(F)c(Cl)c2)nn2cc(C(=O)N3CCNCC3(C)C)nc12 [Compound I-497]	–	–	–	–	0.405 µM	0.27 µM	> 1 µM	> 1 µM	–	–
CC(C)c1cc(-c2ccc(F)c(Cl)c2)nn2cc(C(=O)N3CCN(C(=O)[C@H]4C[C@@](C)(O)C4)CC3(C)C)nc12 [Compound I-482]	–	–	–	–	0.0027 µM	0.0027 µM	2.7 µM	6.35 µM	–	–
CC(C)c1cc(-c2ccc(C(F)(F)F)cc2)nn2cc(C(=O)N3CCN(C(=O)c4ccncn4)CC3(C)C)nc12 [Compound I-247]	–	–	–	–	0.0043 µM	0.0071 µM	> 1 µM	> 1 µM	–	–
CC(C)c1cc(C(C)C)c2nc(C(=O)N3CCN(C(=O)C4CCC(C(=O)O)CC4)CC3(C)C)cn2n1 (centres unmarked) [Compound I-551, 4-[4-(6,8-diisopropylimidazo[1,2-b]pyridazine-2-carbonyl)-3,3-dimethyl-piperazine-1-carbonyl]cyclohexanecarboxylic acid]	–	–	–	–	0.97 µM	1.5 µM	> 30 µM	> 30 µM	–	–
Cc1ccc(-c2cc(C(C)C)c3nc(C(=O)N4CCN(C(=O)c5nc(C)n[nH]5)CC4(C)C)cn3n2)cc1 [Compound I-334]	–	–	–	–	0.0046 µM	0.0048 µM	> 1 µM	> 1 µM	–	–
CC(C)c1cc(-c2ccc(F)cc2)nn2cc(C(=O)N3CCN(C(=O)C4(NC(=O)OC(C)(C)C)CC4)[C@@H](C)C3)nc12 [Compound I-148]	0.052 µM	0.096 µM	–	–	–	–	–	–	> 50 µM	39 µM
COC(=O)C12CC(C(=O)N3CCN(C(=O)c4cn5nc(-c6ccc(F)cc6)cc(C(C)(C)C)c5n4)C(C)(C)C3)(C1)C2 [Compound I-530]	–	–	–	–	0.0013 µM	0.0022 µM	0.41 µM	0.5 µM	–	–
Cc1ccc(-c2cc(C(C)C)c3nc(C(=O)N4CCN(C(=O)c5nc[nH]n5)CC4(C)C)cn3n2)cc1 [Compound I-331]	–	–	–	–	0.0114 µM	0.0069 µM	> 1 µM	> 1 µM	–	–
CC(C)c1cc(-c2ccc(F)c(Cl)c2)nn2cc(C(=O)N3CCN(C(=O)[C@H]4C[C@@H](C(=O)O)C4)CC3(C)C)nc12 [Compound I-502]	–	–	–	–	0.021 µM	0.02 µM	> 1 µM	> 1 µM	–	–
Cc1ccc(-c2cc(C(C)(C)C)c3nc(C(=O)N4CCN(c5cn[nH]c5)C(=O)C4(C)C)cn3n2)cc1 [Compound I-364]	–	–	–	–	0.0015 µM	0.0017 µM	> 1 µM	> 1 µM	–	–

SMILES	IC50 [1]	IC50 [2]	Thrombin % @ concentration [3]	UTP % @ concentration ([4]; @ 50 (μM))	IC50 ([1]; antagonist mode)	IC50 ([2]; antagonist mode)	IC50 ([3]; antagonist mode)	IC50 ([4]; antagonist mode)	IC50 [3]	IC50 [4]
Cc1nnc(C(=O)N2CCN(C(=O)c3cn4nc(-c5ccc(F)c(C)c5)cc(C(C)C)c4n3)C(C)(C)C2)o1 [Compound I-344]	–	–	–	–	0.0154 µM	0.0158 µM	> 1 µM	> 1 µM	–	–
CN(C)C(=O)CN1CCN(C(=O)c2cn3nc(-c4ccc(F)cc4)cc(C(C)(C)C)c3n2)C(C)(C)C1=O [Compound I-194]	–	–	–	–	0.0413 µM	0.0403 µM	> 1 µM	> 1 µM	–	–
CC(C)c1cc(-c2ccc(F)cc2)nn2cc(C(=O)N3CCN(C(=O)[C@H](O)C(C)C)[C@@H](C)C3)nc12 [Compound I-111]	0.007 µM	0.015 µM	–	–	–	–	–	–	20 µM	19 µM
O=C(c1cn2nc(-c3ccc(F)cc3)cc(C(F)(F)F)c2n1)N1CCC(n2cc(-c3ccccc3)[nH]c2=O)CC1 [Compound I-80]	0.054 µM	0.082 µM	–	–	–	–	–	–	> 5 µM	> 5 µM
CC(C)c1cc(-c2ccc(F)cc2)nn2cc(C(=O)N3CCN(C(=O)OC(C)(C)C)CC34COC4)nc12 [Compound I-23, tert-butyl 5-[6-(4-fluorophenyl)-8-isopropyl-imidazo[1,2-b]pyridazine-2-carbonyl]-2-oxa-5,8-diazaspiro[3.5]nonane-8-carboxylate]	0.13 µM	0.3 µM	–	–	–	–	–	–	> 50 µM	> 50 µM
CC(C)(C)c1cc(-c2ccc(F)c(Cl)c2)nn2cc(C(=O)N3CCN(C(=O)[C@H]4CC[C@@H](C(=O)O)CC4)CC3(C)C)nc12 [Compound I-487]	–	–	–	–	0.0003 µM	0.0003 µM	> 1 µM	> 1 µM	–	–
Cc1cccc(-c2cc(C(C)(C)C)c3nc(C(=O)N4CCN(C(=O)c5c[nH]c(C)n5)CC4(C)C)cn3n2)c1 [Compound I-407]	–	–	–	–	0.0056 µM	0.0051 µM	> 1 µM	> 1 µM	–	–
CCCCC(O)C(=O)N1CCN(C(=O)c2cn3nc(-c4ccc(F)cc4)cc(C(C)C)c3n2)C[C@@H]1C (some centres unmarked) [Compound I-107]	0.001 µM	0.004 µM	–	–	–	–	–	–	10 µM	9.6 µM
Cc1cccc(-c2cc(C(C)(C)C)c3nc(C(=O)N4CCN(C(=O)c5nnc(C)o5)CC4(C)C)cn3n2)c1 [Compound I-410]	–	–	–	–	0.0063 µM	0.0082 µM	0.95 µM	> 1 µM	–	–
CC(C)(C)c1cc(-c2ccc(F)cc2)nn2cc(C(=O)N3CCN(c4cscn4)C(=O)C3(C)C)nc12 [Compound I-266]	–	–	–	–	0.0006 µM	0.001 µM	> 0.1 µM	> 1 µM	–	–
CCc1cc(-c2ccc(F)cc2)nn2cc(C(=O)N3CCN(C(=O)Cc4ccncc4)[C@@H](C)C3)nc12 [Compound I-163]	0.64 µM	1.7 µM	–	–	–	–	–	–	12 µM	13 µM
CC(C)c1cc(-c2ccc(F)cc2)nn2cc(C(=O)N3CCN(C(=O)C4(O)CCC4)CC3(C)C)nc12 [Compound I-19, [6-(4-Fluorophenyl)-8-isopropyl-imidazo[1,2-b]pyridazin-2-yl]-[4-(1-hydroxycyclobutanecarbonyl)-2,2-dimethyl-piperazin-1-yl]methanone]	0.025 µM	0.056 µM	62% @ 50	–	–	–	–	–	–	50 µM
Cc1nc(N2CCN(C(=O)c3cn4nc(-c5ccc(C)c(F)c5)cc(C(C)(C)C)c4n3)C(C)(C)C2=O)c[nH]1 [Compound I-369]	–	–	–	–	0.0054 µM	0.0073 µM	> 1 µM	> 1 µM	–	–
Cc1cccc(-c2cc(C(C)(C)C)c3nc(C(=O)N4CCNC(=O)C4(C)C)cn3n2)c1 [Compound I-350]	–	–	–	–	0.0129 µM	0.0137 µM	> 1 µM	> 1 µM	–	–
CC(C)c1cc(-c2ccc(F)cc2)nn2cc(C(=O)N3CCN(C(=O)[C@H](O)c4ccccc4Cl)[C@@H](C)C3)nc12 [Compound I-106]	0.0006 µM	0.001 µM	–	–	–	–	–	–	> 5 µM	> 5 µM
Cc1cc(F)ccc1-c1cc(C(C)(C)C)c2nc(C(=O)N3CCNC(=O)C3(C)C)cn2n1 [Compound I-439]	–	–	–	–	0.081 µM	0.125 µM	> 1 µM	> 1 µM	–	–
CC(C)[C@@H](O)C(=O)N1CCN(C(=O)c2cn3nc(-c4ccc(F)cc4)cc(N4C[C@@H](C)O[C@@H](C)C4)c3n2)C(C)(C)C1 [Compound I-186]	–	–	–	–	0.0277 µM	0.0387 µM	1.5 µM	1.8 µM	–	–
